≈ marks a conversion by molar mass, not a printed value.
Biological target: EGFR (UniProt P00533)
Sequence (P00533 whole entry, looked up): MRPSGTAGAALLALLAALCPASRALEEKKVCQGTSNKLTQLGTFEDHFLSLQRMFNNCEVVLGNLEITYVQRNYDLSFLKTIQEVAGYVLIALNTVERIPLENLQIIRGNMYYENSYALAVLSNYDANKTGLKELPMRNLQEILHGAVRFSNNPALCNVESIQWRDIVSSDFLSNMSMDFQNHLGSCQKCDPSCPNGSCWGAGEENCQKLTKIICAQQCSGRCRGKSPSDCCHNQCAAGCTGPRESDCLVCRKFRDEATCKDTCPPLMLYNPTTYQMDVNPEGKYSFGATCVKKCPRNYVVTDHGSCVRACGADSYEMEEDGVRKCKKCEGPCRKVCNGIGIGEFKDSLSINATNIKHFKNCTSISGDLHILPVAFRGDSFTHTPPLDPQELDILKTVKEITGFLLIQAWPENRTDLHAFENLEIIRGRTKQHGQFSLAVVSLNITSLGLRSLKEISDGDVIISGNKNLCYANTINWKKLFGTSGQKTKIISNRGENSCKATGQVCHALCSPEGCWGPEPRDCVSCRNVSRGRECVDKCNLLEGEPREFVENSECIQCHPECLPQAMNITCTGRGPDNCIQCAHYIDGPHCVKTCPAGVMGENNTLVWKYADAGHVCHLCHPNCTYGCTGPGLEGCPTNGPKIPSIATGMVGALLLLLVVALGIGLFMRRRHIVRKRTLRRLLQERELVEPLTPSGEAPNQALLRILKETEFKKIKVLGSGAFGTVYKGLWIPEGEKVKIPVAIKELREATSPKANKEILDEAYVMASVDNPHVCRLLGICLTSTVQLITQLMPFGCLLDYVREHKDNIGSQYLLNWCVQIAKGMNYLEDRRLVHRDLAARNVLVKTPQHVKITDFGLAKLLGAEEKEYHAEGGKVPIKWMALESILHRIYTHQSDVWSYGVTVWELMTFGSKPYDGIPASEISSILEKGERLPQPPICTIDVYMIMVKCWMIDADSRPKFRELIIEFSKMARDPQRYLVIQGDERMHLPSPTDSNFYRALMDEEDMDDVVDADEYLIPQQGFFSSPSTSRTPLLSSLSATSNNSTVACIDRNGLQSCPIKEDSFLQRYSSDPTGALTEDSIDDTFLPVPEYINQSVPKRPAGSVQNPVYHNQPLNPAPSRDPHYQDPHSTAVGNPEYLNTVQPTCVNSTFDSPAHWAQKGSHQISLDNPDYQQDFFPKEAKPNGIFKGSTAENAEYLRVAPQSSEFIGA

IC50 | Structure (SMILES)
> 4.5 µg/mL | Clc1cccc(Nc2ncnc(-n3cccc3)n2)c1
> 4.5 µg/mL | COc1cc(Nc2ncnc(-n3ccnc3)n2)cc(OC)c1OC
> 4.5 µg/mL | CN(c1cccc(Cl)c1)c1ncnc(Nc2cc(C(C)(C)C)on2)n1
> 4.5 µg/mL | COc1cc(C)c(Nc2ncnc(-c3cccs3)n2)cc1OC
> 4.5 µg/mL | O=c1[nH]c2ccccc2n1-c1ncnc(Nc2ccc(-c3cnco3)cc2)n1
3.5 to 4.5 µg/mL (≈ 6.87 to 8.83 µM) | COc1cc(Nc2ncnc(-n3c(Nc4ccc5[nH]ncc5c4)nc4ccccc43)n2)cc(OC)c1OC
> 4.5 µg/mL | CN(c1ccc(F)c(Cl)c1)c1ncnc(Nc2cccc(Br)c2)n1
> 4.5 µg/mL | COc1ccc(CNc2ncnc(Nc3cc(-c4ccco4)n[nH]3)n2)cc1
> 4.5 µg/mL | COc1ccc(Nc2ncnc(Nc3ccc(N(C)C)cc3)n2)cc1OC
> 4.5 µg/mL | COC(=O)C(c1ccccc1)c1ncnc(Nc2cc(OC)c(OC)c(OC)c2)n1 (stereo not given)
> 4.5 µg/mL | N#Cc1ccc(Nc2ncnc(-c3cccs3)n2)cc1
< 0.4 µg/mL | COc1cc(Nc2ncnc(N(c3ccc(Cl)cc3)c3nc4ccccc4[nH]3)n2)cc(OC)c1OC
> 4.5 µg/mL | CCN(CC)CCN(C)c1ncnc(Nc2ccc(OC)c(OC)c2)n1
< 0.4 µg/mL | Clc1cccc(Nc2ncnc(Nc3ccc4[nH]ncc4c3)n2)c1
< 0.4 µg/mL | COc1cc(Nc2ncnc(N3CCCc4cc(C)ccc43)n2)cc(OC)c1OC
> 4.5 µg/mL | O=c1[nH]c2ccccc2n1-c1ncnc(Nc2ccncc2)n1
> 4.5 µg/mL | COc1cc(NC(=O)Nc2ncnc(Nc3cc(OC)c(OC)c(OC)c3)n2)cc(OC)c1
< 0.4 µg/mL | CN(c1cccc(Cl)c1)c1ncnc(Nc2ccc(OCCO)cc2)n1
> 4.5 µg/mL | COc1cc(Nc2ncnc(Nc3[nH]ncc3-c3cccc(Cl)c3)n2)cc(OC)c1OC
> 4.5 µg/mL | COc1cc(Nc2ncnc(-n3c(NC4c5ccccc5CC4O)nc4ccccc43)n2)cc(OC)c1OC (stereo not given)
< 0.4 µg/mL | Cc1cccc(Nc2ncnc(Nc3ccc4c(cnn4Cc4ccccc4)c3)n2)c1
0.4 to 2.4 µg/mL (≈ 1.02 to 6.1 µM) | COc1cc(C)c(Nc2ncnc(Nc3cc(-c4ccco4)n[nH]3)n2)cc1OC

IC50 | Structure (SMILES)
< 0.4 µg/mL | COc1cc(Nc2ncnc(N(C)c3ccc4c(cnn4Cc4ccccc4)c3)n2)cc(OC)c1OC
0.4 to 2.4 µg/mL (≈ 1.02 to 6.1 µM) | COc1cc(Nc2ncnc(Nc3ccc4cn[nH]c4c3)n2)cc(OC)c1OC
0.4 to 2.4 µg/mL (≈ 1 to 6.01 µM) | COc1cc(Nc2ncnc(Nc3cc(C(C)(C)C)[nH]n3)n2)cc(OC)c1OC
< 0.4 µg/mL | Cc1cccc(Nc2ncnc(Nc3cc(-c4ccccc4)n[nH]3)n2)c1
> 4.5 µg/mL | COc1ccc(CNc2ncnc(Nc3cc(OC)c(OC)c(OC)c3)n2)cc1
0.4 to 2.4 µg/mL (≈ 1.01 to 6.04 µM) | COc1cc(Nc2ncnc(N[C@H](CO)c3ccccc3)n2)cc(OC)c1OC
> 4.5 µg/mL | c1ccc(COc2cccc(Nc3ncnc(-c4cccs4)n3)c2)cc1
> 4.5 µg/mL | COc1cc(Nc2ncnc(-n3c(NCc4ccncc4)nc4ccccc43)n2)cc(OC)c1OC
0.4 to 2.4 µg/mL (≈ 1.1 to 6.6 µM) | COc1ccc(Nc2ncnc(Nc3ccc4c(c3)CCC4)n2)cc1OC
> 4.5 µg/mL | N#Cc1cccc(Nc2ncnc(-n3c(=O)[nH]c4ccccc43)n2)c1
> 4.5 µg/mL | COc1cc(Nc2ncnc(-n3c(OCc4ccccn4)nc4ccccc43)n2)cc(OC)c1OC
> 4.5 µg/mL | COc1cc(Nc2ncnc(-n3c(NC(C)=O)nc4ccccc43)n2)cc(OC)c1OC
3.5 to 4.5 µg/mL (≈ 8 to 10.3 µM) | COc1cc2ccn(-c3ncnc(Nc4cc(OC)c(OC)c(OC)c4)n3)c2cc1OC
> 4.5 µg/mL | COC(=O)c1sccc1Nc1ncnc(Nc2cc(OC)c(OC)c(OC)c2)n1
0.4 to 2.4 µg/mL (≈ 1.02 to 6.1 µM) | COc1ccc(CNc2ncnc(Nc3cc(-c4ccco4)[nH]n3)n2)cc1OC
> 4.5 µg/mL | COc1cc(Nc2ncnc(-n3c(N)nc4ccccc43)n2)ccc1OCCn1ccnn1
0.4 to 2.4 µg/mL (≈ 1.2 to 7.18 µM) | c1ccc(CNc2ncnc(Nc3cc(-c4ccco4)n[nH]3)n2)nc1
> 4.5 µg/mL | COc1ccc(Nc2ncnc(NCCCOC(C)C)n2)cc1OC
> 4.5 µg/mL | CCC(O)CNc1ncnc(Nc2ccc(OC)c(OC)c2)n1 (stereo not given)
> 4.5 µg/mL | COC(=O)Cc1cccc(Nc2ncnc(-n3c(NCc4ccc(OC)cc4)nc4ccccc43)n2)c1
0.4 to 2.4 µg/mL (≈ 1.01 to 6.04 µM) | COc1cc(Nc2ncnc(Nc3ccc(C(=O)O)cc3)n2)cc(OC)c1OC
< 0.4 µg/mL | COc1cc(Nc2ncnc(Nc3cccc(C(=O)O)c3)n2)cc(OC)c1OC

IC50 | Structure (SMILES)
0.4 to 2.4 µg/mL (≈ 1.01 to 6.04 µM) | COc1ccc(N(C)c2ncnc(Nc3cc(OC)c(OC)c(OC)c3)n2)cc1
> 4.5 µg/mL | COc1cc(Nc2ncnc(-n3c(NCCCCO)nc4ccccc43)n2)cc(OC)c1OC
3.5 to 4.5 µg/mL (≈ 7.6 to 9.77 µM) | COc1cccc(Nc2ncccc2-c2ncnc(Nc3cc(OC)c(OC)c(OC)c3)n2)c1
< 0.4 µg/mL | Cc1cccc(Nc2ncnc(N(C)c3cccc(Cl)c3)n2)c1
0.4 to 2.4 µg/mL (≈ 1.07 to 6.41 µM) | Cc1ccc2c(c1)CCCN2c1ncnc(Nc2ccc3ncsc3c2)n1
0.4 to 2.4 µg/mL (≈ 0.892 to 5.35 µM) | CC(C)(C)OC(=O)NCc1ccc(Nc2ncnc(Nc3cc(-c4ccco4)n[nH]3)n2)cc1
> 4.5 µg/mL | COc1ccc(Nc2nc3ccccc3n2-c2ncnc(Nc3cc(OC)c(OC)c(OC)c3)n2)cc1
> 4.5 µg/mL | COc1cc(Nc2ncnc(-n3c(NC(C)(C)c4ccccc4)nc4ccccc43)n2)cc(OC)c1OC
> 4.5 µg/mL | COc1ccc(Nc2ncnc(-n3c(=O)[nH]c4ccccc43)n2)cn1
2.4 to 3.5 µg/mL (≈ 4.92 to 7.18 µM) | COc1cc(Nc2ncnc(Nc3cc(-c4cccc(C(F)(F)F)c4)n[nH]3)n2)cc(OC)c1OC
> 4.5 µg/mL | Clc1ccc(-c2csc(Nc3ncnc(-n4cccc4)n3)n2)cc1
> 4.5 µg/mL | COc1cc(Nc2ncnc(-n3c(NCc4ccccc4F)nc4ccccc43)n2)cc(OC)c1OC
> 4.5 µg/mL | COc1cc(Br)ccc1Nc1nc2ccccc2n1-c1ncnc(Nc2cc(OC)c(OC)c(OC)c2)n1
> 4.5 µg/mL | COc1cc(Nc2ncnc(-n3c(N)nc4ccccc43)n2)cc(OC)c1OCCN1CCOCC1
> 4.5 µg/mL | COc1cc(Nc2ncnc(-c3cccnc3Nc3ccccc3C)n2)cc(OC)c1OC
> 4.5 µg/mL | COc1cc(Nc2ncnc(-n3ccc4cccnc43)n2)cc(OC)c1OC
> 4.5 µg/mL | COc1cccc(Nc2ncnc(-c3cccs3)n2)n1
0.4 to 2.4 µg/mL (≈ 1.18 to 7.08 µM) | O=c1[nH]c2ccccc2n1-c1ncnc(Nc2ccccc2Cl)n1
2.4 to 3.5 µg/mL (≈ 7.89 to 11.5 µM) | Nc1nc2ccccc2n1-c1ncnc(Nc2cccnc2)n1
< 0.4 µg/mL | Cc1cccc(Nc2ncnc(Nc3ccc4[nH]ccc4c3)n2)c1
> 4.5 µg/mL | Nc1ncnc(Nc2nc(-c3ccc(Cl)cc3)cs2)n1
> 4.5 µg/mL | COc1cc(Nc2ncnc(-n3c(NCc4cccc(Cl)c4)nc4ccccc43)n2)cc(OC)c1OC

IC50 | Structure (SMILES)
< 0.4 µg/mL | CC(=O)N1CCc2cc(Nc3ncnc(N4CCCc5cc(C)ccc54)n3)ccc21
2.4 to 3.5 µg/mL (≈ 4.91 to 7.17 µM) | COc1cc(Nc2ncnc(Nc3cc(-c4ccc(Cl)c(Cl)c4)n[nH]3)n2)cc(OC)c1OC
< 0.4 µg/mL | NC(=O)Cc1cccc(Nc2ncnc(Nc3cccc(Br)c3)n2)c1
> 4.5 µg/mL | Fc1ccc(CNc2ncccc2-c2ncnc(Nc3ccc(N4CCOCC4)cc3)n2)cc1
> 4.5 µg/mL | Nc1ncnc(Nc2cccc(Nc3ncnc(N)n3)c2)n1
> 4.5 µg/mL | COc1ccc(Nc2ncnc(NC[C@@H]3CCCO3)n2)cc1OC
> 4.5 µg/mL | COc1cc(Nc2ncnc(Nc3ncncn3)n2)cc(OC)c1OC
> 4.5 µg/mL | O=c1[nH]c2ccccc2n1-c1ncnc(Nc2cc(Cl)cc(Cl)c2)n1
0.4 to 2.4 µg/mL (≈ 0.886 to 5.32 µM) | COC(=O)c1cccc(Nc2ncnc(-n3c(NCc4ccccc4)nc4ccccc43)n2)c1
> 4.5 µg/mL | Fc1ccc(Nc2ncnc(Cl)n2)cc1Cl
> 4.5 µg/mL | COc1cc(Nc2ncnc(-n3ccc4cc(F)ccc43)n2)cc(OC)c1OC
> 4.5 µg/mL | COc1cc(Nc2ncnc(-c3cccnc3)n2)cc(OC)c1OC
> 4.5 µg/mL | COc1cc(Nc2ncnc(-n3c(Nc4ccccc4C(C)C)nc4ccccc43)n2)cc(OC)c1OC
> 4.5 µg/mL | COc1cc(Nc2ncnc(-n3c(N)nc4ccccc43)n2)cc(OC)c1
> 4.5 µg/mL | COc1cc(Nc2ncnc(-n3ccc4c(OC)cccc43)n2)cc(OC)c1OC
< 0.4 µg/mL | CCc1ccc(Nc2nc3ccccc3n2-c2ncnc(Nc3cc(OC)c(OC)c(OC)c3)n2)cc1
> 4.5 µg/mL | O=C(O)Cc1cccc(Nc2ncnc(-n3c(NCc4ccccn4)nc4ccccc43)n2)c1
> 4.5 µg/mL | COc1ccc(CNc2nc3ccccc3n2-c2ncnc(Nc3cccc(C(=O)O)c3)n2)cc1
> 4.5 µg/mL | Clc1cccc(Nc2ncnc(-c3cccs3)n2)c1
> 4.5 µg/mL | Nc1nc2ccccc2n1-c1ncnc(Cl)n1
< 0.4 µg/mL | COc1cc(Nc2ncnc(Nc3cccc(O)c3)n2)cc(OC)c1OC
< 0.4 µg/mL | CN(c1cccc(Cl)c1)c1ncnc(Nc2cccc(CC(=O)O)c2)n1

IC50 | Structure (SMILES)
2.4 to 3.5 µg/mL (≈ 6.19 to 9.03 µM) | CC(C)Nc1ncccc1-c1ncnc(Nc2cccc(Cn3ccnn3)c2)n1
> 4.5 µg/mL | Cc1ccc2c(c1)CCCN2c1ncnc(NCc2cccnc2)n1
> 4.5 µg/mL | Clc1ncnc(Nc2ccc(OCc3ccccc3)cc2)n1
0.4 to 2.4 µg/mL (≈ 1.01 to 6.07 µM) | COc1cc(Nc2ncnc(-n3c(=O)oc4ccccc43)n2)cc(OC)c1OC
2.4 to 3.5 µg/mL (≈ 5.11 to 7.45 µM) | COc1cc(Nc2ncnc(Nc3n[nH]c(Nc4ccc(Cl)cc4)n3)n2)cc(OC)c1OC
< 0.4 µg/mL | COc1cc(Nc2ncnc(Nc3ccc(Oc4ccccc4)cc3)n2)cc(OC)c1OC
> 4.5 µg/mL | COc1cc(Nc2ncnc(-n3c(N)nc4ccccc43)n2)ccc1OCCN1CCOCC1
> 4.5 µg/mL | COc1cc(Nc2ncnc(-n3ccc4cc(Cl)ccc43)n2)cc(OC)c1OC
> 4.5 µg/mL | FC(F)C(F)(F)Oc1cccc(Nc2ncnc(-c3ccnc(Cl)c3)n2)c1
0.4 to 2.4 µg/mL (≈ 1.19 to 7.17 µM) | CCN(CC)CCNc1ncnc(N(C)c2cccc(Cl)c2)n1
> 4.5 µg/mL | COc1cc(Nc2ncnc(-n3c(Nc4ccc5cn[nH]c5c4)nc4ccccc43)n2)cc(OC)c1OC
> 4.5 µg/mL | COc1ccc(CNc2nc3ccccc3n2-c2ncnc(Nc3cccc(CC(=O)O)c3)n2)cc1
0.4 to 2.4 µg/mL (≈ 1.03 to 6.16 µM) | COc1ccc(Nc2ncnc(Nc3cc(-c4ccccc4)n[nH]3)n2)cc1OC
3.5 to 4.5 µg/mL (≈ 9.85 to 12.7 µM) | O=c1[nH]c2ccccc2n1-c1ncnc(Nc2ccc3ncccc3c2)n1
< 0.4 µg/mL | Cc1ccc(-c2cc(Nc3ncnc(Nc4cc(C)ccc4C)n3)[nH]n2)cc1
< 0.4 µg/mL | COc1cc(Nc2ncnc(Nc3cc(C)c(O)cc3C)n2)cc(OC)c1OC
0.4 to 2.4 µg/mL (≈ 1.01 to 6.04 µM) | c1ccc(Cn2ncc3cc(Nc4ncnc(NCc5ccco5)n4)ccc32)cc1
> 4.5 µg/mL | Fc1ccccc1Nc1ncnc(-c2ccccc2)n1
2.4 to 3.5 µg/mL (≈ 6.53 to 9.53 µM) | COc1cc(Nc2ncnc(Nc3ccccc3C)n2)cc(OC)c1OC
2.4 to 3.5 µg/mL (≈ 4.85 to 7.08 µM) | CNS(=O)(=O)Cc1ccc(Nc2ncnc(Nc3cc(-c4ccc(C(=O)OC)cc4)n[nH]3)n2)cc1
< 0.4 µg/mL | Cc1ccc(Cl)cc1Nc1ncnc(Nc2cc(Cl)ccc2C)n1

Structure (SMILES) | IC50
Clc1ccccc1Nc1ncnc(-n2cccc2)n1 | > 4.5 µg/mL
